Columns and labels:
[1] = tested on: bacteria from a contaminated kaolin product; test: Kaolin slurry preservation test, challenge: on day 20 samples inoculated with ~10^5 cfu/ml bacteria from a contaminated kaolin product; format: cell-based
Protocol: (§1) In the comparative testing, dry kaolin was mixed with water to achieve a 65% solid slurry material. This material contained no biocide. The slurry was then split into 200 gram aliquots and dosed with different biocides at different concentration as shown in Tables 1-3. All samples were kept at 50° C. until the end of the testing, which was up to 28 days.
(§2) The protocol for the testing of each sample is as follows: • 1) dosed with a recorded level of biocide; • 2) mixed for 24 hours contact time and plated using standard method agar for bacterial growth; • 3) remixed daily for 1 hour and retested for bacterial growth at Day 3; • 4) remixed daily for 1 hour and retested for bacterial growth at Day 7; • 5) remixed daily for 1 hour and retested for bacterial growth at Day 14; • 6) on day 20, samples were split into two containers: one container was inoculated (or challenged) with ˜10^5 cfu/ml bacteria, the other was left “as treated”, the challenge material was obtained from a contaminated kaolin product and is assumed to be representative of the types of bacteria that are seen in the kaolin industry, and the two sets of samples were prepared for Day 21 testing; • 7) both sets were remixed daily for 1 hour and retested for bacterial growth at Day 21; and • 8) both sets remixed daily for 1 hour and retested for bacterial growth at Day 28.

[2] = tested on: bacterial growth in kaolin slurry; test: Kaolin slurry preservation test: biocide-dosed 65% solids slurry plated on standard method agar, samples as treated; format: cell-based, bacteria; settings: for biocide efficacy compared with known biocides: Table 2, up to 28 days
Protocol: as §1
A number of different and known biocides were used in the study and they include glutaraldehyde (glute), 1,2 benzithiazolin-3-one (BIT), tetrahydro-3-5-methyl-2H-1,3,5-thiadizine-2-thione (thione), isothiazoline (ISO), bronopol (BNPD) or orthophenyl phenate (OPP). For shorthand purposes, the study refers to the tradename of the biocide, which is found in the above listing of the biocides. Metam sodium is designated as SMDC and MDTCMA is used without change
as §2
Different contact times were used to see how quickly the bacterial population was effected by the biocide.

## CN.CNC(=S)S [MDTCMA, methylammonium monomethyldithiocarbamate]
[1]; 500 ppm, Table 2
  Log Red, 21 day Challenge: 3
  Log Red, 28 day Challenge: 3
  cfu/mL, 21 day Challenge: 73,000 cfu/mL
  cfu/mL, 28 day Challenge: 65,000 cfu/mL
[1]; 1000 ppm, Table 2
  Log Red, 21 day Challenge: 3
  Log Red, 28 day Challenge: 3
  cfu/mL, 21 day Challenge: 52,000 cfu/mL
  cfu/mL, 28 day Challenge: 32,000 cfu/mL
[1]; 1000 ppm, Table 3
  Log Red, 21 day Challenge: 2
  Log Red, 28 day Challenge: 1
  cfu/mL, 21 day Challenge: 196,000 cfu/mL
  cfu/mL, 28 day Challenge: 3,680,000 cfu/mL
[1]; 1500 ppm, Table 3
  Log Red, 21 day Challenge: 3
  Log Red, 28 day Challenge: 1
  cfu/mL, 21 day Challenge: 18,200 cfu/mL
  cfu/mL, 28 day Challenge: 2,300,000 cfu/mL
[1]; Table 3, challenge testing
  biocide effectiveness in challenge testing: still performed adequately
[1]; after inoculation
  biocide effectiveness after inoculation, overall result of the studies: effective biocide
[2]; 500 ppm, Table 1
  Log Red, contact time 1 day: 0
  Log Red, contact time 3 day: 1
  Log Red, contact time 7 day: 3
  cfu/mL, contact time 1 day: 13,140,000 cfu/mL
  cfu/mL, contact time 3 day: 1,880,000 cfu/mL
  cfu/mL, contact time 7 day: 40,000 cfu/mL
  performance against the BIT biocide when measuring log reduction: performed at least as well as the BIT biocide
[2]; 500 ppm, Table 2
  Log Red, contact time 1 day: 0
  Log Red, contact time 3 day: 1
  Log Red, contact time 7 day: 4
  Log Red, contact time 14 day: 4
  Log Red, contact time 21 day: 5
  Log Red, contact time 28 day: 4
  cfu/mL, contact time 1 day: 18,840,000 cfu/mL
  cfu/mL, contact time 3 day: 1,960,000 cfu/mL
  cfu/mL, contact time 7 day: 5,600 cfu/mL
  cfu/mL, contact time 14 day: 3,100 cfu/mL
  cfu/mL, contact time 21 day: 1,800 cfu/mL
  cfu/mL, contact time 28 day: 2,500 cfu/mL
[2]; 1000 ppm, Table 1
  Log Red, contact time 1 day: 1
  Log Red, contact time 3 day: 2
  Log Red, contact time 7 day: 5
  cfu/mL, contact time 1 day: 7,060,000 cfu/mL
  cfu/mL, contact time 3 day: 1,680,000 cfu/mL
  cfu/mL, contact time 7 day: 1,000 cfu/mL
  performance against the BIT biocide when measuring log reduction: far superior
[2]; 1000 ppm, Table 2
  Log Red, contact time 1 day: 0
  Log Red, contact time 3 day: 4
  Log Red, contact time 7 day: 4
  Log Red, contact time 14 day: 4
  Log Red, contact time 21 day: 5
  Log Red, contact time 28 day: 4
  cfu/mL, contact time 1 day: 14,520,000 cfu/mL
  cfu/mL, contact time 3 day: 7,000 cfu/mL
  cfu/mL, contact time 7 day: 3,200 cfu/mL
  cfu/mL, contact time 14 day: 2,500 cfu/mL
  cfu/mL, contact time 21 day: 1,100 cfu/mL
  cfu/mL, contact time 28 day: 1,700 cfu/mL
[2]; 1000 ppm, Table 3
  Log Red, contact time 1 day: 3
  Log Red, contact time 3 day: 2
  Log Red, contact time 7 day: 2
  Log Red, contact time 14 day: 3
  Log Red, contact time 21 day: 2
  Log Red, contact time 28 day: 2
  cfu/mL, contact time 1 day: 100 cfu/mL
  cfu/mL, contact time 3 day: 100 cfu/mL
  cfu/mL, contact time 7 day: 100 cfu/mL
  cfu/mL, contact time 14 day: 100 cfu/mL
  cfu/mL, contact time 21 day: 100 cfu/mL
  cfu/mL, contact time 28 day: 100 cfu/mL
[2]; 1500 ppm, Table 3
  Log Red, contact time 1 day: 3
  Log Red, contact time 3 day: 2
  Log Red, contact time 7 day: 2
  Log Red, contact time 14 day: 3
  Log Red, contact time 21 day: 2
  Log Red, contact time 28 day: 2
  cfu/mL, contact time 1 day: 100 cfu/mL
  cfu/mL, contact time 3 day: 100 cfu/mL
  cfu/mL, contact time 7 day: 100 cfu/mL
  cfu/mL, contact time 14 day: 100 cfu/mL
  cfu/mL, contact time 21 day: 100 cfu/mL
  cfu/mL, contact time 28 day: 100 cfu/mL
[2]
  biocide efficacy compared with known biocides: comparable biocide efficacy as compared to known biocides
[2]; Table 3, up to the 28 day testing, not challenge testing, 1000 and 1500 ppm
  biocide effectiveness compared with thione: performed on a par with the thione

## O=CCCCC=O [50% Glute, glutaraldehyde, reference compound]
[1]; 400 ppm, Table 2
  Log Red, 21 day Challenge: 6
  Log Red, 28 day Challenge: 5
  cfu/mL, 21 day Challenge: 100 cfu/mL
  cfu/mL, 28 day Challenge: 100 cfu/mL
[2]; 400 ppm, Table 2
  Log Red, contact time 1 day: 5
  Log Red, contact time 3 day: 5
  Log Red, contact time 7 day: 6
  Log Red, contact time 14 day: 6
  Log Red, contact time 21 day: 6
  Log Red, contact time 28 day: 5
  cfu/mL, contact time 1 day: 100 cfu/mL
  cfu/mL, contact time 3 day: 100 cfu/mL
  cfu/mL, contact time 7 day: 100 cfu/mL
  cfu/mL, contact time 14 day: 100 cfu/mL
  cfu/mL, contact time 21 day: 100 cfu/mL
  cfu/mL, contact time 28 day: 100 cfu/mL
[2]
  biocide efficacy compared with known biocides: best performer

Reference: patent US20170000129A1, “METHOD FOR TREATING MINERAL SLURRIES WITH A BIOCIDE” (priority 2015, published 2017)
